Measurements from the NIST ThermoML archive (doi:10.1016/j.fluid.2017.12.026).
Several values for one entry are separate records, joined by “and”; a condition that tells them apart may be missing. Equal entries are not always repeated.

Conditions: Coaxial cylinder method

CCCCC [pentane]
Conditions	thermal conductivity
309.04 K, 260 kPa, Liquid	0.109 W/m/K
309.04 K, 261 kPa, Liquid	0.1092 W/m/K
309.04 K, 1000 kPa, Liquid	0.1095 W/m/K
309.04 K, 2000 kPa, Liquid	0.1101 W/m/K
309.04 K, 3012 kPa, Liquid	0.1108 W/m/K
309.04 K, 4151 kPa, Liquid	0.1118 W/m/K
309.04 K, 4297 kPa, Liquid	0.1117 W/m/K
309.04 K, 5604 kPa, Liquid	0.1123 W/m/K
309.04 K, 6001 kPa, Liquid	0.1125 W/m/K
309.04 K, 7000 kPa, Liquid	0.113 W/m/K
309.04 K, 8108 kPa, Liquid	0.1137 W/m/K
309.04 K, 9011 kPa, Liquid	0.1142 W/m/K
309.04 K, 10008 kPa, Liquid	0.1154 W/m/K
309.04 K, 11054 kPa, Liquid	0.1161 W/m/K
309.04 K, 12000 kPa, Liquid	0.1167 W/m/K
309.04 K, 12504 kPa, Liquid	0.1168 W/m/K
309.04 K, 13000 kPa, Liquid	0.1171 W/m/K
309.04 K, 14742 kPa, Liquid	0.1181 W/m/K
309.04 K, 19800 kPa, Liquid	0.1207 W/m/K
309.04 K, 19908 kPa, Liquid	0.1205 W/m/K
309.04 K, 20004 kPa, Liquid	0.1206 W/m/K
309.04 K, 24000 kPa, Liquid	0.1231 W/m/K
309.04 K, 25000 kPa, Liquid	0.1233 W/m/K
309.04 K, 28000 kPa, Liquid	0.1241 W/m/K
309.04 K, 29100 kPa, Liquid	0.1253 W/m/K
309.04 K, 29300 kPa, Liquid	0.1256 W/m/K
309.04 K, 34000 kPa, Liquid	0.1281 W/m/K
309.04 K, 35000 kPa, Liquid	0.1286 W/m/K
309.04 K, 38000 kPa, Liquid	0.1298 W/m/K
309.04 K, 39100 kPa, Liquid	0.1299 W/m/K
309.04 K, 39176 kPa, Liquid	0.13 W/m/K
309.04 K, 39350 kPa, Liquid	0.1304 W/m/K
309.04 K, 49940 kPa, Liquid	0.1352 W/m/K
309.04 K, 50230 kPa, Liquid	0.1353 W/m/K
309.04 K, 50800 kPa, Liquid	0.1352 W/m/K
315.55 K, 100 kPa, Gas	0.01635 W/m/K
331.2 K, 2097 kPa, Liquid	0.1035 W/m/K
331.2 K, 3000 kPa, Liquid	0.1041 W/m/K
331.2 K, 3500 kPa, Liquid	0.1045 W/m/K
331.2 K, 4000 kPa, Liquid	0.1046 W/m/K
331.2 K, 5000 kPa, Liquid	0.1053 W/m/K
331.2 K, 6000 kPa, Liquid	0.1061 W/m/K
331.2 K, 7000 kPa, Liquid	0.1068 W/m/K
331.2 K, 8000 kPa, Liquid	0.1069 W/m/K
331.2 K, 9000 kPa, Liquid	0.1072 W/m/K
331.2 K, 9500 kPa, Liquid	0.1077 W/m/K
331.2 K, 10000 kPa, Liquid	0.1078 W/m/K
331.2 K, 11000 kPa, Liquid	0.1085 W/m/K
331.2 K, 12000 kPa, Liquid	0.109 W/m/K
331.2 K, 13000 kPa, Liquid	0.1094 W/m/K
331.2 K, 15000 kPa, Liquid	0.1109 W/m/K
331.2 K, 16000 kPa, Liquid	0.1115 W/m/K
331.2 K, 17000 kPa, Liquid	0.1122 W/m/K
331.2 K, 18000 kPa, Liquid	0.1126 W/m/K
331.2 K, 19000 kPa, Liquid	0.1131 W/m/K
331.2 K, 20000 kPa, Liquid	0.1139 W/m/K
331.2 K, 21000 kPa, Liquid	0.1141 W/m/K
331.2 K, 22000 kPa, Liquid	0.1148 W/m/K
331.2 K, 24000 kPa, Liquid	0.1158 W/m/K
331.2 K, 25482 kPa, Liquid	0.1167 W/m/K
331.2 K, 26404 kPa, Liquid	0.1172 W/m/K
331.2 K, 27000 kPa, Liquid	0.1176 W/m/K
331.2 K, 30000 kPa, Liquid	0.1188 W/m/K
331.2 K, 31040 kPa, Liquid	0.1193 W/m/K
331.2 K, 31081 kPa, Liquid	0.1193 W/m/K
331.2 K, 32500 kPa, Liquid	0.1202 W/m/K
331.2 K, 33500 kPa, Liquid	0.1209 W/m/K
331.2 K, 34477 kPa, Liquid	0.1211 W/m/K
331.2 K, 35500 kPa, Liquid	0.1216 W/m/K
331.2 K, 36500 kPa, Liquid	0.1224 W/m/K
331.2 K, 37885 kPa, Liquid	0.1229 W/m/K
331.2 K, 38500 kPa, Liquid	0.1231 W/m/K
331.2 K, 39000 kPa, Liquid	0.1237 W/m/K
331.2 K, 39500 kPa, Liquid	0.1239 W/m/K
331.2 K, 40000 kPa, Liquid	0.1241 W/m/K
331.2 K, 41000 kPa, Liquid	0.1242 W/m/K
331.2 K, 42000 kPa, Liquid	0.1246 W/m/K
331.2 K, 43500 kPa, Liquid	0.1255 W/m/K
331.2 K, 44500 kPa, Liquid	0.1261 W/m/K
331.2 K, 45500 kPa, Liquid	0.1266 W/m/K
331.2 K, 47000 kPa, Liquid	0.1272 W/m/K
331.2 K, 48000 kPa, Liquid	0.1273 W/m/K
331.2 K, 49500 kPa, Liquid	0.1283 W/m/K
331.2 K, 50000 kPa, Liquid	0.1278 W/m/K
386 K, 5061 kPa, Liquid	0.09007 W/m/K
386 K, 10175 kPa, Liquid	0.09446 W/m/K
386 K, 18875 kPa, Liquid	0.0996 W/m/K
386 K, 20275 kPa, Liquid	0.1023 W/m/K
386 K, 30275 kPa, Liquid	0.1082 W/m/K
386 K, 34475 kPa, Liquid	0.1107 W/m/K
386 K, 40275 kPa, Liquid	0.1122 W/m/K
386 K, 49975 kPa, Liquid	0.1184 W/m/K
386 K, 53475 kPa, Liquid	0.1203 W/m/K
387.83 K, 75 kPa, Gas	0.02437 W/m/K
387.83 K, 100 kPa, Gas	0.02484 W/m/K
399.6 K, 2900 kPa, Liquid	0.08457 W/m/K
399.6 K, 3000 kPa, Liquid	0.08493 W/m/K
399.6 K, 4000 kPa, Liquid	0.08522 W/m/K
399.6 K, 4500 kPa, Liquid	0.08602 W/m/K
399.6 K, 5000 kPa, Liquid	0.0869 W/m/K
399.6 K, 6000 kPa, Liquid	0.088 W/m/K
399.6 K, 7000 kPa, Liquid	0.08901 W/m/K
399.6 K, 7500 kPa, Liquid	0.08952 W/m/K
399.6 K, 8000 kPa, Liquid	0.0899 W/m/K
399.6 K, 9500 kPa, Liquid	0.09127 W/m/K
399.6 K, 10000 kPa, Liquid	0.09171 W/m/K
399.6 K, 11000 kPa, Liquid	0.09237 W/m/K
399.6 K, 12000 kPa, Liquid	0.09323 W/m/K
399.6 K, 13000 kPa, Liquid	0.09372 W/m/K
399.6 K, 14000 kPa, Liquid	0.09464 W/m/K
399.6 K, 15000 kPa, Liquid	0.09518 W/m/K
399.6 K, 16000 kPa, Liquid	0.09601 W/m/K
399.6 K, 17000 kPa, Liquid	0.09671 W/m/K
399.6 K, 18000 kPa, Liquid	0.09742 W/m/K
399.6 K, 19000 kPa, Liquid	0.09836 W/m/K
399.6 K, 20000 kPa, Liquid	0.0989 W/m/K
399.6 K, 21000 kPa, Liquid	0.09955 W/m/K
399.6 K, 22000 kPa, Liquid	0.1001 W/m/K
399.6 K, 23500 kPa, Liquid	0.1011 W/m/K
399.6 K, 25000 kPa, Liquid	0.1022 W/m/K
399.6 K, 26000 kPa, Liquid	0.1026 W/m/K
399.6 K, 27000 kPa, Liquid	0.1031 W/m/K
399.6 K, 28000 kPa, Liquid	0.1037 W/m/K
399.6 K, 29000 kPa, Liquid	0.1047 W/m/K
399.6 K, 30000 kPa, Liquid	0.1051 W/m/K
399.6 K, 31000 kPa, Liquid	0.1056 W/m/K
399.6 K, 33000 kPa, Liquid	0.1066 W/m/K
399.6 K, 34000 kPa, Liquid	0.1071 W/m/K
399.6 K, 35000 kPa, Liquid	0.1076 W/m/K
399.6 K, 35301 kPa, Liquid	0.1079 W/m/K
421.85 K, 100 kPa, Gas	0.02874 W/m/K and 0.02895 W/m/K
421.85 K, 1640 kPa, Liquid	0.07566 W/m/K
421.85 K, 1650 kPa, Liquid	0.07566 W/m/K
421.85 K, 1660 kPa, Liquid	0.07566 W/m/K
421.85 K, 1680 kPa, Liquid	0.07566 W/m/K
421.85 K, 1700 kPa, Liquid	0.07566 W/m/K
421.85 K, 1710 kPa, Liquid	0.07566 W/m/K
421.85 K, 1720 kPa, Liquid	0.07566 W/m/K
421.85 K, 1730 kPa, Liquid	0.07596 W/m/K
421.85 K, 1750 kPa, Liquid	0.07566 W/m/K
421.85 K, 1764 kPa, Liquid	0.07568 W/m/K
421.85 K, 1772 kPa, Liquid	0.07584 W/m/K
421.85 K, 1910 kPa, Liquid	0.07624 W/m/K
421.85 K, 1946 kPa, Liquid	0.0762 W/m/K
421.85 K, 1954 kPa, Liquid	0.07621 W/m/K
422.2 K, 2518 kPa, Liquid	0.07714 W/m/K
422.2 K, 5041 kPa, Liquid	0.08091 W/m/K
422.2 K, 10475 kPa, Liquid	0.08676 W/m/K
422.2 K, 18675 kPa, Liquid	0.09347 W/m/K
422.2 K, 18775 kPa, Liquid	0.09348 W/m/K
422.2 K, 20475 kPa, Liquid	0.09413 W/m/K
422.2 K, 30575 kPa, Liquid	0.1002 W/m/K
422.2 K, 30675 kPa, Liquid	0.1007 W/m/K
422.2 K, 40275 kPa, Liquid	0.1061 W/m/K
422.2 K, 48075 kPa, Liquid	0.1104 W/m/K
422.2 K, 52975 kPa, Liquid	0.1123 W/m/K
425.73 K, 100 kPa, Gas	0.02926 W/m/K
425.74 K, 1560 kPa, Gas	0.0319 W/m/K
425.8 K, 100 kPa, Gas	0.0294 W/m/K
425.82 K, 100 kPa, Gas	0.02926 W/m/K
426.24 K, 100 kPa, Gas	0.02935 W/m/K
426.25 K, 100 kPa, Gas	0.02935 W/m/K
426.25 K, 1210 kPa, Gas	0.0316 W/m/K
426.25 K, 1280 kPa, Gas	0.03151 W/m/K
